In this experiment the test system is KB. The experiment can be described thus: Cytotoxicity against human KB cells. The experiment is classed as functional. To be noted: read-out: ED50 (the source's name).

≈ marks a conversion by molar mass, not a printed value.

For the molecule `C=C(C)C(=O)O[C@H]1C/C(CO)=C/CC[C@@]2(C)O[C@H]2[C@H]2OC(=O)C(=C)[C@@H]21` [TOMENPHANTIN A], the EC50 is 3 µg/mL (≈ 8.61 µM).

On to `C=C(C)C(=O)O[C@H]1C/C(C=O)=C/CC[C@@]2(C)O[C@H]2[C@H]2OC(=O)C(=C)[C@@H]21` [TOMENPHANTIN B], for which the EC50 was 2.7 µg/mL (≈ 7.79 µM).

Values taken from ChEMBL document CHEMBL1158020, “Antitumor agents. 190. Absolute stereochemistry of the cytotoxic germacranolides, tomenphantins A and B, from Elephantopus tomentosus” (1999).
